# PMC6145916, “Interaction of mitochondrial fission factor with dynamin related protein 1 governs physiological mitochondrial function in vivo” (Scientific Reports, 2018)
# Where no end group is shown, it is not given here.
# Legend:
# Assay type in all cases: in vivo, mouse
# Drp1 = test: Mitochondrial Drp1 content in brain of wild-type mice; conditions: 3 mg/Kg/day, subcutaneous osmotic pump, 8-week treatment, WT mice; Drp1 relative to ALDH2; n = 4 mice
# From the text: (§1) (a) Quantification of mitochondrial Drp1 content relative to ALDH2 (a mitochondrial matrix enzyme) in the mitochondrial fraction isolated from total brain lysate of wild-type mice (Western blot shown in Fig. S3B) (n = 4 mice). (b) ATP content in brain tissue of wild-type mice (n = 4 mice, 2 replicates). (c) Representative transmission electron microscopy images of the striatum from wild-type mice. […] The first principal component represents 42% of the variation. (f) Local linear embedding dimensionality reduction and visualization of all behaviors collected weekly from TAT- (black) or P259- (purple) treated WT and TAT- (white) treated R6/2 mice over the course of 8 weeks. […] All behavior and survival tests were conducted by an experienced observer who was blinded to the treatment groups. Data are mean ± s.e.
# (§2) Five-week old R6/2 HD mice and their wild-type littermates (a total of 60 mice) were implanted subcutaneously with a 28-d Alzet osmotic pump with either P259-TAT or TAT control peptide (15 mice per group) to be delivered continuously at a rate of 3 mg/Kg/day, as previously described. […]
# The effect of peptides on GTPase activity of Drp1 was measured by incubating recombinant Drp1 […]
# for 1 hour at 37 °C. GTPase activity was measured using a colorimetric GTPase assay kit (Novus Biologicals, CO, USA) as instructed by the manufacturer. […]
# HD R6/2 model mice = test: Survival of R6/2 Huntington's mice; conditions: 3 mg/Kg/day, continuous subcutaneous osmotic pump, 8 weeks, vs TAT; 15 mice per group
# From the text: as §1
# as §2, with “described. All mice were implanted twice for a total of an 8-week treatment. 20 of the WT mice were implanted 3 times for a total of a 12-week treatment at 3 mg/Kg/day.” for “described.”
# (§3) To quantify mitochondrial motility, the images at time 0 and 150 seconds w ere overlaid. […]
# wild-type mice = test: ATP content in brain tissue; conditions: 3 mg/Kg/day, subcutaneous osmotic pump, 8 weeks, WT mice; n = 4 mice, 2 replicates
# From the text: as §1
# as §2, with “described. All mice were implanted twice for a total of an 8-week treatment. 20 of the WT mice were implanted 3 times for a total of a 12-week treatment at 3 mg/Kg/day.” for “described.”
# as §3
substance,measurement,setting,value
YGRKKRRQRRRGSGIIQLPEIVVV-NH2 (C-terminus assumed) [P259],reduction of mitochondrial Drp1 association (brain),Drp1,~ 80%
same,survival of HD R6/2 mice,HD R6/2 model mice,further decline in survival
same,decrease in ATP levels in the brain,wild-type mice,30%
